Assays:
Format in all cases: cell-based
Human primary T cells [1] = assay: T cell activation: secreted IFN-y; conditions: 48 hours, fold over background normalized to Compound 141A; for IFN-y 1 nM: 1 nM compound; for IFN-y 10 nM: 10 nM compound; for IFN-y 100 nM: 100 nM compound
Protocol: (§1) Human primary T cells were isolated from commercially available frozen peripheral blood mononuclear cells (HemaCare Corporation) or from fresh LeukoPaks (Research Blood Components). T cells were isolated through depletion of non-T cells using negative selection kit according to the manufacturer's protocol (Miltenyi Biotec, Human Pan T Cell Isolation Kit, 130-096-535). Isolated cells were cultured overnight at 37° C. with 5% CO2 and plated at 1×10^5 cells per well in XVivo-15 serum-free media (Lonza, 04-418Q) into 96 well plates coated with anti-CD3 (OKT3) antibody (ThermoFisher, 16-0037-85). To coat the plates for T cell capture, anti-CD3 antibody was diluted in PBS at 10 μg/mL and 100 μl added to each well. Plates were incubated at 4° C. overnight or at 37° C. for 2 hours and washed once with PBS before use. Serial dilutions of each compound were added in duplicates to the T cells to assess their effect on T cell activation. T cells treated with 5 μg/mL of CD28 antibody (ThermoFisher, 16-0289-85) or T cells stimulated by CD3 only were used as a control. Plates were incubated with the Cbl-b inhibitors for 48 hours at 37° C. with 5% CO2, and supernatants were subsequently analyzed for levels of the activation induced secreted cytokines IL-2 or IFN-y (BD Biosciences CBA Flex Beads, 558269, 558270). T cells were additionally stained with anti-CD69 antibody (Invitrogen, 12-0699-42 which labels a T cell activation associated membrane protein to and surface expression was measured by flow cytometry (ThermoFisher Attune NxT).
(§2) To control for natural inter-donor variability in T cell responses intrinsic to using primary human donor derived cells, secreted IL-2 and IFN-y measurements for each test compound were reported as the fold increase of the compound treated levels over background (antiCD3/CD28 treatment only) normalized to the values obtained for Compound 141A. Results for compound treatment-induced changes in CD69 levels are similarly reported as the fold increase due to compound treatment over anti-CD3 stimulated background only, normalized to values obtained for Compound 141A.
Normalized T cell IFN-y responses were sorted into ranges as follows: fold over background between 1.10 and 2.00: range “A”, values between 0.31 and 1.00: range “B;” values between 0.10 and 0.30: range “C”, and values between 0.01 and 0.09: range “D.”

Human primary T cells [2] = assay: T cell activation: secreted IL-2; conditions: 48 hours, fold over background normalized to Compound 141A; for IL-2 1 nM: 1 nM compound; for IL-2 10 nM: 10 nM compound; for IL-2 100 nM: 100 nM compound
Protocol: as §1, §2
Normalized T cell IL-2 responses were sorted into ranges as follows: fold over background values between 1.41 and 1.8: range “X”, between 0.80 and 1.40: range “A”, values between 0.31 and 0.79: range “B” values between 0.10 and 0.30: range “C”, values between 0.01 and 0.09: range “D.”

Human primary T cells [3] = assay: T cell activation: CD69 surface expression by flow cytometry; conditions: fold over anti-CD3 stimulated background normalized to Compound 141A; for CD69 10 nM: 10 nM compound; for CD69 100 nM: 100 nM compound
Protocol: as §1, §2
Similarly, bins for normalized CD69 levels were sorted into ranges as follows: fold over background values between 1.11 and 1.6: range “X”, values between 0.81 and 1.10: range “A”; values between 0.61 and 0.80: range “B;” values between 0.30 and 0.60: range “C”.

| Molecule | IFN-y 1 nM (Human primary T cells [1]) | IFN-y 10 nM (Human primary T cells [1]) | IFN-y 100 nM (Human primary T cells [1]) | IL-2 1 nM (Human primary T cells [2]) | IL-2 10 nM (Human primary T cells [2]) | IL-2 100 nM (Human primary T cells [2]) | CD69 10 nM (Human primary T cells [3]) | CD69 100 nM (Human primary T cells [3]) |
| --- | --- | --- | --- | --- | --- | --- | --- | --- |
| C[C@H]1CCCN(Cc2cc3c(c(C(F)(F)F)c2)CN(c2cc(C4(Cc5nncn5C)COC4)cc(OCCO)n2)C3=O)C1 [Compound 100, 2-[6-(2-hydroxyethoxy)-4-{3-[(4-methyl-1,2,4-triazol-3-yl)methyl]oxetan-3-yl}pyridin-2-yl]-6-{[(3S)-3-methylpiperidin-1-yl]methyl}-4-(trifluoromethyl)-3H-isoindol-1-one] | C (values between 0.10 and 0.30: range “C”) | B (values between 0.31 and 1.00: range “B;”) | B (values between 0.31 and 1.00: range “B;”) | C (values between 0.10 and 0.30: range “C”) | B (values between 0.31 and 0.79: range “B”) | B (values between 0.31 and 0.79: range “B”) | C (values between 0.30 and 0.60: range “C”) | A (values between 0.81 and 1.10: range “A”) |
| CCOc1cc(C2(Cc3nncn3C)COC2)cc(N2Cc3c(cc(CN4CCC[C@H](C)C4)cc3C(F)(F)F)C2=O)n1 [Compound 146] | B (values between 0.31 and 1.00: range “B;”) | A (fold over background between 1.10 and 2.00: range “A”) | A (fold over background between 1.10 and 2.00: range “A”) | B (values between 0.31 and 0.79: range “B”) | B (values between 0.31 and 0.79: range “B”) | A (between 0.80 and 1.40: range “A”) | A (values between 0.81 and 1.10: range “A”) | A (values between 0.81 and 1.10: range “A”) |
| CCNc1cc(C2(Cc3nncn3C)COC2)cc(N2Cc3c(cc(CN4CCC[C@H](C)C4)cc3C(F)(F)F)C2=O)n1 [Compound 147] | B (values between 0.31 and 1.00: range “B;”) | A (fold over background between 1.10 and 2.00: range “A”) | A (fold over background between 1.10 and 2.00: range “A”) | B (values between 0.31 and 0.79: range “B”) | B (values between 0.31 and 0.79: range “B”) | A (between 0.80 and 1.40: range “A”) | A (values between 0.81 and 1.10: range “A”) | A (values between 0.81 and 1.10: range “A”) |
| C[C@H]1CCCN(Cc2cc3c(c(C(F)(F)F)c2)CN(c2cccc([C@]4(c5nncn5C)C[C@@H](C)C4)c2)C3=O)C1 [Compound 148] | B (values between 0.31 and 1.00: range “B;”) | A (fold over background between 1.10 and 2.00: range “A”) | A (fold over background between 1.10 and 2.00: range “A”) | B (values between 0.31 and 0.79: range “B”) | A (between 0.80 and 1.40: range “A”) | A (between 0.80 and 1.40: range “A”) | A (values between 0.81 and 1.10: range “A”) | A (values between 0.81 and 1.10: range “A”) |
| (3S)-1-[6-(2,5-dioxopyrrol-1-yl)hexyl]-1-({2-[6-(ethylsulfanyl)-4-{3-[(4-methyl-1,2,4-triazol-3-yl)methyl]oxetan-3-yl}pyridin-2-yl]-3-oxo-7-(trifluoromethyl)-1H-isoindol-5-yl}methyl)-3-methylpiperidin-1-ium [Compound 209] | C (values between 0.10 and 0.30: range “C”) | C (values between 0.10 and 0.30: range “C”) | B (values between 0.31 and 1.00: range “B;”) | C (values between 0.10 and 0.30: range “C”) | C (values between 0.10 and 0.30: range “C”) | B (values between 0.31 and 0.79: range “B”) | C (values between 0.30 and 0.60: range “C”) | B (values between 0.61 and 0.80: range “B;”) |
